# Experimental data reported in patent publication US9096832B2, “Differentiation of human embryonic stem cells” (LifeScan, Inc., priority 2007, dated 2015).
# Columns and labels:
# [1] = tested on: human embryonic stem cell line H7; assay: FACS of protein markers after activin A treatment (Table IIB); assay type: cell-based
# From the text: (§1) The level of expression of definitive endoderm markers was examined by PCR (FIG. 1), FACS (results summarized in Table II), and immunohistochemistry (FIG. 2).
# CXCR4 positive cells were also highly positive for C-kit, EPCAM, CD99, and negative for CD9. The expression pattern for these markers was consistent among all three hES cell lines examined (Table IIB for H7 and Table IIC for H1). […] In parallel, almost 100% of the differentiated cells were […] (FIG. 2).
# Adhered cells were removed from culture plates by five-minute incubation with TrypLE™ Express solution (Invitrogen, CA). Released cells were resuspended in human embryonic stem cell culture medium and recovered by centrifugation, followed by washing and resuspending the cells in a staining buffer consisting of 2% BSA, 0.05% sodium azide in PBS (Sigma, MO). As appropriate, the cells were Fc-receptor blocked for 15 minutes using a 0.1% γ-globulin (Sigma) solution. […] Controls included appropriate isotype matched antibodies, unstained cells, and cells stained only with secondary conjugated antibody. All incubations with antibodies were performed for 30 mins at 4° C. after which the cells were washed with the staining buffer. Samples that were stained with unconjugated primary antibodies were incubated for an additional 30 mins at 4° C. with secondary conjugated PE or —APC labeled antibodies. See Table I for a list of secondary antibodies used. Washed cells were pelleted and resuspended in the staining buffer, and the cell surface molecules were identified using a FACS Array (BD Biosciences) instrument, collecting at least 10,000 events.
# [2] = tested on: human embryonic stem cell line H9; assay: PCR of endoderm, extraembryonic, mesoderm and ectoderm markers after activin A treatment on MEFs; assay type: cell-based
# From the text: as §1
# Cells were harvested at the time points indicated in FIG. 3 and assayed by PCR for the expression of genes shown (FIGS. 3, 4 and 5).
# RNA extraction, purification, and CDNA synthesis: RNA samples were purified by binding to a silica-gel membrane (Rneasy Mini Kit, Qiagen, CA) in the presence of an ethanol-containing, high-salt buffer followed by washing to remove contaminants. The RNA was further purified using a TURBO DNA-free kit (Ambion, INC), and high-quality RNA was then eluted in water. Yield and purity were assessed by A260 and A280 readings on a spectrophotometer. cDNA copies were made from purified RNA using an ABI (ABI, CA) high capacity cDNA archive kit.
# Final data were expressed relative to a calibrator sample.
# [3] = tested on: H9P49 and H1P46 embryonic stem cells; assay: Definitive endoderm on MATRIGEL: effective dose of activin A with GSK-3B inhibitor or Wnt-3a; assay type: cell-based, human
# From the text: FIG. 31 panels a-d is for H9P49 cells and panels e-f is for H1P46 cells.
# [4] = tested on: human embryonic stem cell line H9; assay: CXCR4 expression by FACS, Activin A +/- Wnt3a, Example 34; assay type: cell-based; conditions: end of the 5th day, H9 passage 54
# Method: The effect that Wnt-3a treatment has on cytokine expression was analyzed using a protein array. Cells of the human embryonic stem cell line H9 were cultured according to the methods described in Example 15. At passage 54, cells were differentiated in the presence of 100 ng/mlActivinA+/−10 ng/mlWnt3a for 2 days in 0.5% FBS DMEM/F12.
# At the end of the 5th day, CXCR4 expression was determined by FACS for each treatment group.
# [5] = tested on: human embryonic stem cell line H9; conditions: activin A or retinoic acid alone
# Method: Cultures were harvested and samples of mRNA were collected for analysis.
# Cells seeded on 0.1% Matrigel (BD) coated dishes were fixed with 4% paraformaldheyde for 20 min at room temperature. Fixed cells were blocked for 1 h at room temperature with PBS/0.1%BSA/10% normal chick serum /0.5% Triton X-100 and then incubated overnight with primary antibodies in PBS/0.1%BSA/10% normal chick serum at 4° C. After three washes in PBS/0.1% BSA, fluorescent secondary antibodies at a 1:100 dilution in PBS were incubated with cells for 1 h at room temperature to allow binding. Control samples included reactions where the primary antibody was omitted or where the primary antibody was replaced with corresponding matched negative control immunoglobulins at the same concentration as the primary antibodies. […]
# Real-time PCR amplification and quantitative analysis: Unless otherwise stated, all reagents were purchased from Applied Biosystems. […] For each primer/probe set, a Ct value was determined as the cycle number at which the fluorescence intensity reached a specific value in the middle of the exponential region of amplification. Relative gene expression levels were calculated using the comparative Ct method. […] The normalized amount of target was calculated as 2-ΔCt, assuming amplification to be 100% efficiency. […]
substance,measurement,setting,value
"Activin A: activin A (a member of the TGFβ superfamily), R&D Systems; 'w/o wnt' in Table VII = 100 ng/ml Activin A without Wnt3a",CXCR4+,[1]; 1-day AA 100 ng/ml,6%
same,CXCR4+ C-Kit+,[1]; 1-day AA 100 ng/ml,2.97%
same,CXCR4+ CD9+,[1]; 1-day AA 100 ng/ml,8.13%
same,CXCR4+ EPCAM+,[1]; 1-day AA 100 ng/ml,14.58%
same,CXCR4+,[1]; 3-day AA 100 ng/ml,38%
same,CXCR4+ C-Kit+,[1]; 3-day AA 100 ng/ml,31.56%
same,CXCR4+ CD9+,[1]; 3-day AA 100 ng/ml,24.11%
same,CXCR4+ EPCAM+,[1]; 3-day AA 100 ng/ml,36.67%
same,CXCR4+,[1]; 5-day AA 100 ng/ml,65.5%
same,CXCR4+ C-Kit+,[1]; 5-day AA 100 ng/ml,55.21%
same,CXCR4+ CD9+,[1]; 5-day AA 100 ng/ml,2.1%
same,CXCR4+ EPCAM+,[1]; 5-day AA 100 ng/ml,54.5%
same,Oct4 expression,[2]; Activin A 100 ng/ml up to seven days,no significant decrease
same,Pdx1 gene expression,"[2]; Activin A 100 ng/ml up to seven days, 0% to 2% serum",no Pdx1 gene expression was observed
same,expression of Brachyury,"[2]; H9, 100 ng/ml activin A",decreased
same,expression of neuronal marker Zic1,"[2]; H9, 100 ng/ml activin A",no effect
same,expression of extraembryonic endoderm markers Sox7 and AFP,"[2]; H9, 100 ng/ml activin A, 1-7 days",time-dependent decrease
same,"anterior endoderm markers Cerberus, Otx-1 and Hex genes","[2]; H9, 100 ng/ml activin A, three and five days",significant up regulation
same,"expression of CXCR4, GATA4, HNF-3beta, Mixl1 and Sox-17 mRNA","[2]; H9, 100 ng/ml activin A, two, five and eight days",time-dependent increase
same,expression of definitive endoderm markers,[3]; 50 ng/ml of AA+20 ng/ml of Wnt-3A or 100 nM GSK-3B inhibitor IX,robust expression
same,cell fate at lower doses of activin A,[3]; lower doses of activin A,formation of extraembryonic endoderm
same,cells expressing CXCR4 (FACS),[4],1%
same,expression of Pdx1,[5],did not induce
